This is an account of results in patent US7994209B2, “3-phenoxymethylpyrrolidine compounds” (Theravance, Inc., priority 2009, dated 2011).

In experiment [1] the target is T1, hSERT (Homo sapiens, UniProt P31645). Description: hSERT membrane radioligand binding assay (3H-citalopram), Assay 1. The following applies: SERT pKi, hSERT HEK-293 membranes, 1.0 nM 3H-citalopram; values given as lower bounds.
Experiment [2] deals with T2, hNET (Homo sapiens, UniProt P23975). Description: hNET membrane radioligand binding assay (3H-nisoxetine), Assay 1.
For experiment [3], the target named is T1, hSERT. Description: hSERT neurotransmitter uptake assay (3H-5-HT), Assay 2. It is filed as cell-based. More on the design: expressed in transfected cells; host or cells: HEK-293. The following applies: serotonin reuptake inhibition, 3H-5-HT uptake, HEK-293 hSERT cells (values without asterisk); read-out: SERT pIC50 (converted).
The target of experiment [4] is T2, hNET. Description: hNET neurotransmitter uptake assay (3H-NE), Assay 2. It is filed as cell-based. More on the design: expressed in transfected cells; host or cells: HEK-293. The following applies: norepinephrine reuptake inhibition, 3H-NE uptake, HEK-293 hNET cells (values without asterisk); read-out: NET pIC50 (converted).

T1 sequence (P31645 whole entry): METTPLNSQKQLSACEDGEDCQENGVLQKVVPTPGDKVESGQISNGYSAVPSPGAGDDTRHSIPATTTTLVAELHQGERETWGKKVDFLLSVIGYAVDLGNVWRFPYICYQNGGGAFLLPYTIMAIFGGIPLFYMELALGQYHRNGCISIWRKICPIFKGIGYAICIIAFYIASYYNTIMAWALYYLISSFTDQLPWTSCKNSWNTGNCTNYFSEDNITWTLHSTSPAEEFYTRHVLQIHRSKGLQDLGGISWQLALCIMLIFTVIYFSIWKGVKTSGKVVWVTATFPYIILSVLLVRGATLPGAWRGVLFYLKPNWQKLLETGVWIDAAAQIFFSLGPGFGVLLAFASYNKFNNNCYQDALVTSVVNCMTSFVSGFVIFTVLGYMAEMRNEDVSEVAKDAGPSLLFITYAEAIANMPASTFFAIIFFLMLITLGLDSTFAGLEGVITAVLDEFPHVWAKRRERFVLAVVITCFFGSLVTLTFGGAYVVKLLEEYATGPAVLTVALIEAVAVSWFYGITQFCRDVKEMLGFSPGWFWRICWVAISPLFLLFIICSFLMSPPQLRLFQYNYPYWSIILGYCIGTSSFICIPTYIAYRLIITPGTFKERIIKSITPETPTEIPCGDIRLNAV
T2 sequence (P23975 whole entry): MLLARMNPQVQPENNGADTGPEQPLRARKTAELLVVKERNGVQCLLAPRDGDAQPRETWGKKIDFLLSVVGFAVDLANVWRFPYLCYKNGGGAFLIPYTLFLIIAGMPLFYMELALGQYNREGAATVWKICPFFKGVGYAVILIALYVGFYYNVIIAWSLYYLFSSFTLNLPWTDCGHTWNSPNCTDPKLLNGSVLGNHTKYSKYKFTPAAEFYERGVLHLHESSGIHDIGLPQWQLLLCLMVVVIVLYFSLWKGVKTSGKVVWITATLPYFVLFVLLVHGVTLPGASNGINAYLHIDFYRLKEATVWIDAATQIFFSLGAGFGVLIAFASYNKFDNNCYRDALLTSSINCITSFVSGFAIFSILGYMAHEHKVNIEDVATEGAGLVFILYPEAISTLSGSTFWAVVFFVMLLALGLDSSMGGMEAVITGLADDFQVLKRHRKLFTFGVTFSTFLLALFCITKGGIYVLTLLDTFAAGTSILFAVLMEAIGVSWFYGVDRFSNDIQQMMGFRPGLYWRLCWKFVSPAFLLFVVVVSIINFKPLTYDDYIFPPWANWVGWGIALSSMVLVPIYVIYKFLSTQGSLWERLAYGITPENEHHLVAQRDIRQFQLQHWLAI

Usually Ki stands for a dissociation constant, usually derived from enzyme kinetics or from competition with a known ligand. Read a low Ki as higher affinity. `CC(C)CC(Oc1c(F)cc(Cl)cc1F)C1CCNC1` (centres unmarked) [Example 10-66, 3-[1-(4-Chloro-2,6-difluorophenoxy)-3-methylbutyl]pyrrolidine]: the inhibitory constant (Ki) at hSERT [1] and at hNET [2] was ≤ 10 nM each time. The IC50 on hSERT [3] and at hNET [4] was ≤ 10 nM in each case.

For the molecule `Clc1ccc(O[C@@H](C2CC2)[C@H]2CCNC2)c(Cl)c1` [Example 16-19, (S)-3-[(S)cyclopropyl-(2,4-dichlorophenoxy)methyl]pyrrolidine], the inhibitory constant (Ki) at hSERT [1] and on hNET [2] was ≤ 10 nM in each case. Further, the IC50 at hSERT [3] and at hNET [4] was ≤ 10 nM each time.

Turning to `CC[C@H](Oc1ccc(Cl)c(Cl)c1)[C@H]1CCNC1` [Example 2-7, (S)-3-[(S)-1-(3,4-Dichlorophenoxy)propyl]pyrrolidine], the Ki on hSERT [1] and at hNET [2] was ≤ 10 nM each time. Besides, the IC50 on hSERT [3] and on hNET [4] was ≤ 10 nM each time.

As to `Cc1ccc(O[C@@H](C2CC2)[C@H]2CCNC2)c(Br)c1` [Example 16-25, (S)-3-[(S)-(2-Bromo-4-methylphenoxy)cyclopropylmethyl]pyrrolidine], the Ki at hSERT [1] and on hNET [2] was ≤ 10 nM throughout. The IC50 on hSERT [3] and at hNET [4] was ≤ 10 nM in each case.

For `CC(C)C[C@H](Oc1ccc(C(F)(F)F)cc1)[C@H]1CCNC1` [Example 10-16, (S)-3-[(S)-3-Methyl-1-(4-trifluoromethylphenoxy)butyl]pyrrolidine], the inhibitory constant (Ki) on hSERT [1] and on hNET [2] was ≤ 10 nM in each case. In addition, the IC50 at hSERT [3] and on hNET [4] was ≤ 10 nM throughout.

Consider `Cc1cc(O[C@@H](C(C)C)[C@H]2CCNC2)ccc1Cl` [Example 6-70, (S)-3-[(S)-1-(4-Chloro-3-methylphenoxy)-2-methylpropyl]pyrrolidine], for which the Ki on hSERT [1] and at hNET [2] was ≤ 10 nM each time. Moreover, the IC50 at hSERT [3] and at hNET [4] was ≤ 10 nM in each case.

As to `CCC[C@@H](Oc1cccc(Cl)c1C)[C@@H]1CCNC1` [Example 4-57, (R)-3-[(R)-1-(3-Chloro-2-methylphenoxy)butyl]pyrrolidine], the Ki at hSERT [1] and on hNET [2] was ≤ 10 nM throughout. Besides, the IC50 at hSERT [3] and on hNET [4] was ≤ 10 nM each time.

For `Cc1cc(Cl)ccc1O[C@H](CC(C)C)[C@H]1CCNC1` [Example 10-45, (S)-3-[(R)-1-(4-Chloro-2-methylphenoxy)-3-methylbutyl]pyrrolidine], the Ki on hSERT [1] and on hNET [2] was ≤ 10 nM throughout. Further, the IC50 on hSERT [3] and on hNET [4] was ≤ 10 nM in each case.

Turning to `Fc1ccc(F)c(O[C@@H](C2CC2)[C@H]2CCNC2)c1Cl` [Example 16-61, (S)-3-[(S)-(2-Chloro-3,6-difluorophenoxy)cyclopropylmethyl]pyrrolidine], the Ki at hSERT [1] and on hNET [2] was ≤ 10 nM throughout. Also, the figures for the IC50 on hSERT [3] and on hNET [4] were ≤ 100 nM and ≤ 10 nM, respectively.

`Cc1cc(Cl)ccc1O[C@@H](CC(C)C)[C@H]1CCNC1` [Example 10-47, (S)-3-[(S)-1-(4-Chloro-2-methylphenoxy)-3-methylbutyl]pyrrolidine]: the Ki on hSERT [1] and on hNET [2] was ≤ 10 nM each time. For the same molecule, the IC50 on hSERT [3] and on hNET [4] was ≤ 10 nM throughout.

`CC[C@H](Oc1cc(Cl)cc(Cl)c1)[C@H]1CCNC1` [Example 2-18, (S)-3-[(S)-1-(3,5-Dichlorophenoxy)propyl]pyrrolidine]: the Ki was ≤ 10 nM at hSERT [1] and ≤ 100 nM on hNET [2]. The IC50 at hSERT [3] and on hNET [4] was ≤ 100 nM each time.

`CC[C@H](Oc1cc(F)c(OC)c(F)c1)[C@H]1CCNC1` [Example 2-22, (S)-3-[(S)-1-(3,5-Difluoro-4-methoxyphenoxy)propyl]pyrrolidine]: the inhibitory constant (Ki) at hSERT [1] and at hNET [2] was ≤ 10 nM throughout. Besides, the IC50 was ≤ 100 nM at hSERT [3] and ≤ 10 nM at hNET [4].

`CSc1cccc(O[C@@H](C2CC2)[C@H]2CCNC2)c1` [Example 16-86, (S)-3-[(S)cyclopropyl-(3-methylsulfanylphenoxy)methyl]pyrrolidine]: the Ki on hSERT [1] and on hNET [2] was ≤ 10 nM throughout. In addition, the IC50 at hSERT [3] is ≤ 100 nM; on hNET [4], ≤ 10 nM.

Consider `CC(C)C[C@H](Oc1c(F)cccc1Cl)[C@H]1CCNC1` [Example 10-52, (S)-3-[(S)-1-(2-Chloro-6-fluorophenoxy)-3-methylbutyl]pyrrolidine], for which the inhibition constant (Ki) at hSERT [1] and on hNET [2] was ≤ 10 nM in each case. Moreover, the IC50 on hSERT [3] and on hNET [4] was ≤ 10 nM in each case.

For the molecule `CC[C@H](Oc1c(F)cccc1Cl)[C@H]1CCNC1` [Example 2-25, (S)-3-[(S)-1-(2-Chloro-6-fluorophenoxy)-propyl]pyrrolidine], the Ki at hSERT [1] and on hNET [2] was ≤ 10 nM throughout. In addition, the IC50 on hSERT [3] is ≤ 100 nM; on hNET [4], ≤ 10 nM.

`CC[C@H](Oc1c(F)cc(Cl)cc1F)[C@H]1CCNC1` [Example 2-48, (S)-3-[(S)-1-(4-Chloro-2,6-difluorophenoxy)propyl]pyrrolidine]: the Ki at hSERT [1] and at hNET [2] was ≤ 10 nM throughout. The IC50 on hSERT [3] and at hNET [4] was ≤ 10 nM each time.

In the case of `CC[C@@H](Oc1cccc(Cl)c1C(F)(F)F)[C@@H]1CCNC1` [Example 2-72, (R)-3-[(R)-1-(3-Chloro-2-trifluoromethylphenoxy)propyl]pyrrolidine], the Ki on hSERT [1] and on hNET [2] was ≤ 10 nM throughout. Moreover, the IC50 at hSERT [3] and on hNET [4] was ≤ 100 nM in each case.

Take `CC(C)C[C@H](Oc1ccc(Cl)cc1Cl)[C@H]1CCNC1` [Example 10-42, (S)-3-[(S)-1-(2,4-Dichlorophenoxy)-3-methylbutyl]pyrrolidine]: the Ki on hSERT [1] and on hNET [2] was ≤ 10 nM throughout. Besides, the IC50 on hSERT [3] and at hNET [4] was ≤ 10 nM throughout.

Take `CCc1cc(F)cc(F)c1O[C@@H](C1CC1)[C@H]1CCNC1` [Example 16-81, (S)-3-[(S)cyclopropyl-(2-ethyl-4,6-difluorophenoxy)-methyl]pyrrolidine]: the Ki on hSERT [1] and on hNET [2] was ≤ 10 nM each time. The IC50 on hSERT [3] is ≤ 100 nM; at hNET [4], ≤ 10 nM.

On to `CC(C)CC(Oc1ccc(Cl)cc1F)C1CCNC1` (centres unmarked) [Example 10-39, 3-[1-(4-Chloro-2-fluorophenoxy)-3-methylbutyl]pyrrolidine], for which the inhibition constant Ki at hSERT [1] and at hNET [2] was ≤ 10 nM each time. Also, the IC50 at hSERT [3] and on hNET [4] was ≤ 10 nM each time.

In the case of `CC(C)C(Oc1ccc(Cl)cc1)C1CCNC1` (centres unmarked) [Example 6-74, 3-[1-(4-Chlorophenoxy)-2-methylpropyl]pyrrolidine], the Ki at hSERT [1] and on hNET [2] was ≤ 10 nM each time. For the same molecule, the IC50 at hSERT [3] and on hNET [4] was ≤ 10 nM in each case.

Consider `CC[C@H](Oc1ccc(Cl)c(C)c1)[C@H]1CCNC1` [Example 2-13, (S)-3-[(S)-1-(4-Chloro-3-methylphenoxy)propyl]pyrrolidine], for which the Ki on hSERT [1] and at hNET [2] was ≤ 10 nM throughout. For the same molecule, the IC50 at hSERT [3] and on hNET [4] was ≤ 10 nM throughout.

Regarding `CCC[C@H](Oc1ccc(F)c(F)c1F)[C@H]1CCNC1` [Example 4-50, (S)-3-[(S)-1-(2,3,4-Trifluorophenoxy)butyl]pyrrolidine], the Ki on hSERT [1] and on hNET [2] was ≤ 10 nM each time. Besides, the IC50 on hSERT [3] is ≤ 100 nM; on hNET [4], ≤ 10 nM.

For the molecule `CC(C)CC(Oc1cccc(C(F)(F)F)c1F)C1CCNC1` (centres unmarked) [Example 10-20, 3-[1-(2-Fluoro-3-trifluoromethylphenoxy)-3-methylbutyl]pyrrolidine], the inhibition constant Ki on hSERT [1] and on hNET [2] was ≤ 10 nM in each case. Further, the IC50 on hSERT [3] and at hNET [4] was ≤ 100 nM each time.

`Fc1cc(O[C@@H](C2CC2)[C@H]2CCNC2)ccc1Cl` [Example 16-93, (S)-3-[(S)-(4-Chloro-3-fluorophenoxy)cyclopropylmethyl]pyrrolidine]: the Ki on hSERT [1] and at hNET [2] was ≤ 10 nM throughout. Moreover, the IC50 at hSERT [3] and on hNET [4] was ≤ 10 nM in each case.

Turning to `CC(C)[C@H](Oc1c(Cl)c(F)cc(F)c1Cl)[C@H]1CCNC1` [Example 6-38, (S)-3-[(S)-1-(2,6-Dichloro-3,5-difluorophenoxy)-2-methylpropyl]pyrrolidine], the Ki at hSERT [1] and at hNET [2] was ≤ 10 nM in each case. The IC50 was ≤ 100 nM at hSERT [3] and ≤ 10 nM on hNET [4].

For the molecule `CC[C@H](Oc1cccc2ccccc12)[C@H]1CCNC1` [Example 13, (S)-3-[(s)-1-(Naphthalen-1-yloxy)propyl]pyrrolidine], the inhibition constant (Ki) at hSERT [1] and on hNET [2] was ≤ 10 nM in each case. Besides, the IC50 at hSERT [3] and at hNET [4] was ≤ 10 nM each time.

In the case of `CC(C)C[C@H](Oc1ccc(Cl)c(F)c1F)[C@H]1CCNC1` [Example 10-68, (S)-3-[(S)-1-(4-Chloro-2,3-difluorophenoxy)-3-methylbutyl]pyrrolidine], the Ki on hSERT [1] and at hNET [2] was ≤ 10 nM in each case. Further, the IC50 on hSERT [3] and at hNET [4] was ≤ 10 nM throughout.

With `Fc1ccc(O[C@@H](C2CC2)[C@H]2CCNC2)c(Cl)c1` [Example 16-22, (S)-3-[(S)-(2-Chloro-4-fluorophenoxy)cyclopropylmethyl]pyrrolidine], the Ki at hSERT [1] and at hNET [2] was ≤ 10 nM each time. Moreover, the IC50 is ≤ 100 nM at hSERT [3] and ≤ 10 nM at hNET [4].
